Test results published in patent US6951651B2, “CTL epitope analogs” (priority 1999, dated 2005).
Ends that are not written are not given here.

Tests used:
T cell clone 3-3F4 = assay: Chromium release assay, peptide-sensitized targets lysed by T cell clone 3-3F4; format: cell-based, human; settings: for Conc. (nM): concentration of peptide in which specific killing was between 15 and 30 percent: HLA A*0201-restricted EBVLCL targets, 3-3F4 effectors, E:T=5, 10-fold dilutions 500-0.00005 nM; for recognition by T cell clone 3-3F4 (in words): chromium release assay; for Peptide Concentration (nM), Free Acid, 3-3F4 / Peptide Concentration (nM), Amide, 3-3F4: chromium release, T cell clone 3-3F4; for Peptide Concentration (nM), Amide, 3-3F4: carboxyl terminal amide peptide
Procedure: Nonamer peptides with the substitutions as shown at each position were synthesized as described in Example 1. […] Results of these assays are shown in the right-hand column of Table II, in terms of concentration of peptide (nM) in which specific killing was between 15 and 30 percent. Results presented are the average from at least three independent experiments carried out on different days using different batches of T cell […]. Peptides were tested using 10-fold dilutions, ranging from 500-0.00005 nM.
(§1) To take advantage of the increased immunogenicity of peptides 44 and 46, while maintaining the universal recognition of the native peptide, library-directed changes were made to peptides 44 and 46, substituting back the native amino acids. A series of 21 peptides were constructed based upon the sequence of the tetra-substituted peptides 44 and 46 in each of the carboxyl terminal amidated and free acid forms. The peptides contained single, double, or triple substitutions of amino acids of the native sequence at the positions indicated. These peptides were assayed utilizing a standard chromium release assay with the screening T cell clone, 3-3F4, and a representative T cell clone (VB57) from another individual expressing a different T cell receptor.

T cell clone VB57 = assay: Chromium release assay, peptide-sensitized targets lysed by T cell clone VB57; format: cell-based, human; settings: for Peptide Concentration (nM), Amide, VB57: carboxyl terminal amide peptide
Description: as §1

Substance	Conc. (nM): concentration of peptide in which specific killing was between 15 and 30 percent (T cell clone 3-3F4) [nM]	Peptide Concentration (nM), Free Acid, 3-3F4 (T cell clone 3-3F4) [nM]	Peptide Concentration (nM), Amide, VB57 (T cell clone VB57) [nM]	Peptide Concentration (nM), Amide, 3-3F4 (T cell clone 3-3F4) [nM]	further results
45N: nonamer YLLPMVVPV amide, SEQ ID NO 28 (YLLPMVVPV-NH2) [Peptide 45N]	>500				recognition by T cell clone 3-3F4 (in words) (T cell clone 3-3F4): less active than the native sequence
47N: nonamer YLLPMVTPV amide, SEQ ID NO 23 (YLLPMVTPV-NH2) [Peptide 47N]	500				recognition by T cell clone 3-3F4 (in words) (T cell clone 3-3F4): less active than the native sequence
48N: nonamer YLLPYVVSV amide, SEQ ID NO 29 (YLLPYVVSV-NH2) [Peptide 48N]	>500				
49N: nonamer YLLPYVVPV amide, SEQ ID NO 30 (YLLPYVVPV-NH2) [Peptide 49N]	>500				
50N: nonamer YLLPYVTSV amide, SEQ ID NO 31 (YLLPYVTSV-NH2) [Peptide 50N]	>500				
51N: nonamer YLLPYVTPV amide, SEQ ID NO 32 (YLLPYVTPV-NH2) [Peptide 51N]	>500				
52N: nonamer YLLWMVVSV amide, SEQ ID NO 24 (YLLWMVVSV-NH2) [Peptide 52N]	500				
53N: nonamer YLLWMVVPV amide, SEQ ID NO 25 (YLLWMVVPV-NH2) [Peptide 53N]	500				
54N: nonamer YLLWMVTSV amide, SEQ ID NO 21 (YLLWMVTSV-NH2) [Peptide 54N]	0.5				
55N: nonamer YLLWMVTPV amide, SEQ ID NO 26 (YLLWMVTPV-NH2) [Peptide 55N]	500				
56N: nonamer YLLWYVVSV amide, SEQ ID NO 22 (YLLWYVVSV-NH2) [Peptide 56N]	50				
57N: nonamer YLLWYVVPV amide, SEQ ID NO 33 (YLLWYVVPV-NH2) [Peptide 57N]	>500				
58N: nonamer YLLWYVTSV amide, SEQ ID NO 27 (YLLWYVTSV-NH2) [Peptide 58N]	500				
59N: nonamer YLLWYVTPV amide, SEQ ID NO 34 (YLLWYVTPV-NH2) [Peptide 59N]	>500				
110C: nonamer NLVPMVVTV, SEQ ID NO 42 (NLVPMVVTV-OH) [Peptide 110C]		0.5			
110N: nonamer NLVPMVVTV amide, SEQ ID NO 41 (NLVPMVVTV-NH2) [Peptide 110N]			>5	0.05	
111C: nonamer NLVPMVTTV, SEQ ID NO 44 (HCMV vaccine peptide) [Peptide 111C]		0.05			Peptide Concentration (nM), Free Acid, VB57 (T cell clone VB57): 5 nM; recognition by T cell clone 3-3F4 (in words) (T cell clone 3-3F4): equivalent to its amidated counterpart
111N: nonamer NLVPMVTTV amide, SEQ ID NO 43 (NLVPMVTTV-NH2) [Peptide 111N]			>5	0.05	
112C: nonamer NLVPMVASV, SEQ ID NO 46 (NLVPMVASV-OH) [Peptide 112C]		5			Peptide Concentration (nM), Free Acid, VB57 (T cell clone VB57): 0.5 nM
112N: nonamer NLVPMVASV amide, SEQ ID NO 45 (NLVPMVASV-NH2) [Peptide 112N]			0.5	0.5	
113C: nonamer YLVPMVVTV, SEQ ID NO 60 (YLVPMVVTV-OH) [Peptide 113C]		>5			
113N: nonamer YLVPMVVTV amide, SEQ ID NO 59 (YLVPMVVTV-NH2) [Peptide 113N]			>5	0.5	

Substance	Conc. (nM): concentration of peptide in which specific killing was between 15 and 30 percent (T cell clone 3-3F4) [nM]	Peptide Concentration (nM), Free Acid, 3-3F4 (T cell clone 3-3F4) [nM]	Peptide Concentration (nM), Amide, VB57 (T cell clone VB57) [nM]	Peptide Concentration (nM), Amide, 3-3F4 (T cell clone 3-3F4) [nM]	further results
114C: nonamer YLVPMVTTV, SEQ ID NO 62 (YLVPMVTTV-OH) [Peptide 114C]		0.5			Peptide Concentration (nM), Free Acid, VB57 (T cell clone VB57): 5 nM
114N: nonamer YLVPMVTTV amide, SEQ ID NO 61 (YLVPMVTTV-NH2) [Peptide 114N]			5	0.05	
116C: nonamer NLLPMVVTV, SEQ ID NO 48 (NLLPMVVTV-OH) [Peptide 116C]		>5			
116N: nonamer NLLPMVVTV amide, SEQ ID NO 47 (NLLPMVVTV-NH2) [Peptide 116N]			>5	0.5	
117C: nonamer NLLPMVTTV, SEQ ID NO 50 (NLLPMVTTV-OH) [Peptide 117C]		0.5			Peptide Concentration (nM), Free Acid, VB57 (T cell clone VB57): 5 nM
117N: nonamer NLLPMVTTV amide, SEQ ID NO 49 (NLLPMVTTV-NH2) [Peptide 117N]			>5	0.05	
119C: nonamer NLVPMVVSV, SEQ ID NO 54 (NLVPMVVSV-OH) [Peptide 119C]		>5			Peptide Concentration (nM), Free Acid, VB57 (T cell clone VB57): >5 nM
119N: nonamer NLVPMVVSV amide, SEQ ID NO 53 (NLVPMVVSV-NH2) [Peptide 119N]			>5	0.005	
120C: nonamer NLVPMVTSV, SEQ ID NO 56 (NLVPMVTSV-OH) [Peptide 120C]		5			Peptide Concentration (nM), Free Acid, VB57 (T cell clone VB57): >5 nM
120N: nonamer NLVPMVTSV amide, SEQ ID NO 55 (NLVPMVTSV-NH2) [Peptide 120N]			>5	0.05	
121C: nonamer YLLPMVVTV, SEQ ID NO 74 (YLLPMVVTV-OH) [Peptide 121C]		>5			
121N: nonamer YLLPMVVTV amide, SEQ ID NO 73 (YLLPMVVTV-NH2) [Peptide 121N]			>5	5	
122C: nonamer YLLPMVTTV, SEQ ID NO 76 (YLLPMVTTV-OH) [Peptide 122C]		>5			Peptide Concentration (nM), Free Acid, VB57 (T cell clone VB57): >5 nM
122N: nonamer YLLPMVTTV amide, SEQ ID NO 75 (YLLPMVTTV-NH2) [Peptide 122N]			>5	5	
123C: nonamer YLLPMVASV, SEQ ID NO 78 (YLLPMVASV-OH) [Peptide 123C]		>5			Peptide Concentration (nM), Free Acid, VB57 (T cell clone VB57): >5 nM
123N: nonamer YLLPMVASV amide, SEQ ID NO 77 (YLLPMVASV-NH2) [Peptide 123N]			0.5	0.05	
124C: nonamer YLVPMVVSV, SEQ ID NO 70 (YLVPMVVSV-OH) [Peptide 124C]		>5			Peptide Concentration (nM), Free Acid, VB57 (T cell clone VB57): >5 nM
124N: nonamer YLVPMVVSV amide, SEQ ID NO 69 (YLVPMVVSV-NH2) [Peptide 124N]			5	0.5	
125C: nonamer YLVPMVTSV, SEQ ID NO 72 (YLVPMVTSV-OH) [Peptide 125C]		>5			Peptide Concentration (nM), Free Acid, VB57 (T cell clone VB57): >5 nM
125N: nonamer YLVPMVTSV amide, SEQ ID NO 71 (YLVPMVTSV-NH2) [Peptide 125N]			>5	0.05	
126C: nonamer NLLPMVVSV, SEQ ID NO 66 (NLLPMVVSV-OH) [Peptide 126C]		5			Peptide Concentration (nM), Free Acid, VB57 (T cell clone VB57): >5 nM
A7N: native sequence NLVPMVATV with amidated carboxyl terminus, SEQ ID NO 18 (NLVPMVATV-NH2) [Peptide A7N]	0.5				
